# Assay results reported in patent US20170368082A1, “FORMULATIONS OF BRINCIDOFOVIR” (priority 2016, published 2017).
# Experiment: Tissue distribution by quantitative whole-body autoradiography (QWBA)
# Assay type: in vivo, male Sprague Dawley and Long-Evans rats
# Conditions: for AUCall Ratio (PO/IV) / Cmax Ratio (PO/IV): 15 mg/kg, Group 7 vs Group 4
# Procedure: The study utilized 4 groups of male SD rats (albino), and 3 groups of male LE rats (pigmented); a total of 39 rats. All animals were obtained from Hilltop Lab Animals, Inc. (Scottdale, Pa.). […] Rats in Group 5 were administered a single 2-h IV infusion of [^14C]brincidofovir at a target dose of 2 mg/kg. […] Three dosing formulations (one for high dose IV, one for low dose IV, and one for PO dose) were prepared at QPS on the day of dosing. The IV formulation for Groups 1, 2, 3, and 4 contained a vehicle of 10 mM sodium phosphate buffer in 5% dextrose solution at pH 8.0(±0.1).
# Each animal, at their respective termination time points, was euthanized for QWBA analysis immediately after blood collection. One rat per time point per Group was euthanized as listed below.
# The blood samples were maintained on wet ice (approximately 4° C.) and then centrifuged to obtain plasma within 1 h of the blood collection time. Centrifuge settings were recorded in the study notebook. Duplicate aliquots of plasma (0.050 mL) were analyzed for radioactivity using direct counting by LSC, and residual plasma was stored at approximately −70° C. and was saved for possible future analysis under a separate study protocol. Residual red blood cells were discarded as radioactive waste.
# The pinna, distal limbs, hair, and tail were removed from each frozen carcass and each frozen carcass was embedded in an aqueous suspension of approximately 2% (w/v) carboxymethylcellulose and frozen into a block. The blocks were stored at approximately −20° C. prior to sectioning. Each blocked carcass was mounted on the object stage of a cryomicrotome (Leica CM3600 Cryomacrocut, Nussloch, Germany and Vibratome 9800, St. Louis, Mo.) maintained at approximately −20° C. and internal standards (3), which were plasma fortified with [^14C]-glucose at one concentration (approximately 0.05 μCi/mL), were placed into the frozen blocks, prior to sectioning, and were used for section thickness quality control. A number of whole-body sections (approximately 40 μm thick) were taken in the sagittal plane at various levels of interest using a whole-body cryomicrotome set at −20° C. Sagittal sections (20-50 μm thick) of frozen carcasses were exposed to phosphor imaging plates. Regions of images in tissues were converted to concentrations using standards. All of the major tissues, organs, and biological fluids were represented.
# Tissue concentration data was determined for the following tissues and/or contents: adipose (brown and white), adrenal gland, bile (in duct), blood (cardiac), bone, bone marrow, brain (cerebrum, cerebellum, medulla), cecum (and contents), large intestine (and contents), epididymis, esophagus, eye (uvea and lens), Harderian gland, heart, kidney (cortex and medulla), liver, lung, lymph node, pancreas, pituitary gland, prostate gland, salivary gland, seminal vesicles, skeletal muscle, skin (pigmented and non-pigmented), small intestine (and contents), stomach (gastric mucosa and contents), spleen, spinal cord, testis, thymus, thyroid, and urinary bladder (and contents).
# The imaging plate and sections were placed in light-tight exposure cassettes, in a copper-lined lead safe, for a 4-day exposure at room temperature. […] Quantification was performed by image densitometry using MCD image analysis software (v. 7.0, Interfocus Imaging Ltd) and a standard curve constructed from the integrated response [i.e., Molecular Dynamics Counts per square millimeter (MDC/mm^2)] and the nominal concentrations of the ^14C-calibration standards. The concentrations of radioactivity were expressed as the μg equivalents of [^14C]brincidofovir per gram sample (μg equiv/g). A lower limit of quantification (LLOQ) was applied to the data (See section 6.7.4).
# Tissue concentrations that fell below the LLOQ were identified as being below the quantification limit (BQL). Tissue areas that were not visualized on autoradiographic images were identified as no sample (NS) and reported as BQL.
smiles,measurement,setting,value
CCCCCCCCCCCCCCCCOCCCOP(=O)(O)CO[C@H](CO)Cn1ccc(N)nc1=O [[^14C] brincidofovir],AUCall Ratio (PO/IV),Adipose (brown),0.25
same,Cmax Ratio (PO/IV),Adipose (brown),0.18
same,AUCall,"Adipose (brown), 2 h IV infusion 15 mg/kg, Group 4",96.6220 μg equiv · h/g
same,Tissue Concentration (168 h),"Adipose (brown), 2 h IV infusion 15 mg/kg, Group 4, LLOQ 0.036",0.132 μg equiv/g
same,Tissue Concentration (168 h),"Adipose (brown), PO 15 mg/kg, Group 7, LLOQ 0.034",0.037 μg equiv/g
same,AUCall,"Adipose (brown), PO 15 mg/kg, Group 7",24.3703 μg equiv · h/g
same,AUCall Ratio (PO/IV),Adipose (white),0.16
same,Cmax Ratio (PO/IV),Adipose (white),0.24
same,AUCall,"Adipose (white), 2 h IV infusion 15 mg/kg, Group 4",7.1955 μg equiv · h/g
same,Tissue Concentration (168 h),"Adipose (white), 2 h IV infusion 15 mg/kg, Group 4, LLOQ 0.036",BQL
same,Tissue Concentration (168 h),"Adipose (white), PO 15 mg/kg, Group 7, LLOQ 0.034",BQL
same,AUCall,"Adipose (white), PO 15 mg/kg, Group 7",1.1215 μg equiv · h/g
same,AUCall Ratio (PO/IV),Adrenal Gland,0.19
same,Cmax Ratio (PO/IV),Adrenal Gland,0.28
same,AUCall,"Adrenal Gland, 2 h IV infusion 15 mg/kg, Group 4",384.2580 μg equiv · h/g
same,Tissue Concentration (168 h),"Adrenal Gland, 2 h IV infusion 15 mg/kg, Group 4, LLOQ 0.036",0.49 μg equiv/g
same,Tissue Concentration (168 h),"Adrenal Gland, PO 15 mg/kg, Group 7, LLOQ 0.034",0.058 μg equiv/g
same,AUCall,"Adrenal Gland, PO 15 mg/kg, Group 7",74.5860 μg equiv · h/g
same,AUCall Ratio (PO/IV),Blood (cardiac),0.48
same,Cmax Ratio (PO/IV),Blood (cardiac),0.21
same,AUCall,"Blood (cardiac), 2 h IV infusion 15 mg/kg, Group 4",45.3555 μg equiv · h/g
same,Tissue Concentration (168 h),"Blood (cardiac), 2 h IV infusion 15 mg/kg, Group 4, LLOQ 0.036",BQL
same,Tissue Concentration (168 h),"Blood (cardiac), PO 15 mg/kg, Group 7, LLOQ 0.034",BQL
same,AUCall,"Blood (cardiac), PO 15 mg/kg, Group 7",21.9165 μg equiv · h/g
same,AUCall Ratio (PO/IV),Bone Marrow,0.35
same,Cmax Ratio (PO/IV),Bone Marrow,0.12
same,AUCall,"Bone Marrow, 2 h IV infusion 15 mg/kg, Group 4",197.3860 μg equiv · h/g
same,Tissue Concentration (168 h),"Bone Marrow, 2 h IV infusion 15 mg/kg, Group 4, LLOQ 0.036",0.232 μg equiv/g
same,Tissue Concentration (168 h),"Bone Marrow, PO 15 mg/kg, Group 7, LLOQ 0.034",0.094 μg equiv/g
same,AUCall,"Bone Marrow, PO 15 mg/kg, Group 7",68.7413 μg equiv · h/g
same,AUCall Ratio (PO/IV),Bone,0.30
same,Cmax Ratio (PO/IV),Bone,0.39
same,AUCall,"Bone, 2 h IV infusion 15 mg/kg, Group 4",6.1805 μg equiv · h/g
same,Tissue Concentration (168 h),"Bone, 2 h IV infusion 15 mg/kg, Group 4, LLOQ 0.036",BQL
same,Tissue Concentration (168 h),"Bone, PO 15 mg/kg, Group 7, LLOQ 0.034",BQL
same,AUCall,"Bone, PO 15 mg/kg, Group 7",1.8470 μg equiv · h/g
same,AUCall Ratio (PO/IV),Brain (cerebellum),0.07
same,Cmax Ratio (PO/IV),Brain (cerebellum),0.07
same,AUCall,"Brain (cerebellum), 2 h IV infusion 15 mg/kg, Group 4",12.1870 μg equiv · h/g
same,Tissue Concentration (168 h),"Brain (cerebellum), 2 h IV infusion 15 mg/kg, Group 4, LLOQ 0.036",BQL
same,Tissue Concentration (168 h),"Brain (cerebellum), PO 15 mg/kg, Group 7, LLOQ 0.034",BQL
same,AUCall,"Brain (cerebellum), PO 15 mg/kg, Group 7",0.8610 μg equiv · h/g
same,AUCall Ratio (PO/IV),Brain (cerebrum),0.08
same,Cmax Ratio (PO/IV),Brain (cerebrum),0.07
same,AUCall,"Brain (cerebrum), 2 h IV infusion 15 mg/kg, Group 4",9.1765 μg equiv · h/g
same,Tissue Concentration (168 h),"Brain (cerebrum), 2 h IV infusion 15 mg/kg, Group 4, LLOQ 0.036",BQL
same,Tissue Concentration (168 h),"Brain (cerebrum), PO 15 mg/kg, Group 7, LLOQ 0.034",BQL
same,AUCall,"Brain (cerebrum), PO 15 mg/kg, Group 7",0.7650 μg equiv · h/g
same,AUCall Ratio (PO/IV),Brain (medulla),0.06
same,Cmax Ratio (PO/IV),Brain (medulla),0.06
same,AUCall,"Brain (medulla), 2 h IV infusion 15 mg/kg, Group 4",9.7470 μg equiv · h/g
same,Tissue Concentration (168 h),"Brain (medulla), 2 h IV infusion 15 mg/kg, Group 4, LLOQ 0.036",BQL
same,Tissue Concentration (168 h),"Brain (medulla), PO 15 mg/kg, Group 7, LLOQ 0.034",BQL
same,AUCall,"Brain (medulla), PO 15 mg/kg, Group 7",0.5770 μg equiv · h/g
same,AUCall Ratio (PO/IV),Cecum,0.48
same,Cmax Ratio (PO/IV),Cecum,1.07
same,AUCall,"Cecum, 2 h IV infusion 15 mg/kg, Group 4",360.7580 μg equiv · h/g
same,Tissue Concentration (168 h),"Cecum, 2 h IV infusion 15 mg/kg, Group 4, LLOQ 0.036",0.08 μg equiv/g
same,Tissue Concentration (168 h),"Cecum, PO 15 mg/kg, Group 7, LLOQ 0.034",0.137 μg equiv/g
same,AUCall,"Cecum, PO 15 mg/kg, Group 7",174.4118 μg equiv · h/g
same,AUCall Ratio (PO/IV),Epididymis,0.33
same,Cmax Ratio (PO/IV),Epididymis,0.16
same,AUCall,"Epididymis, 2 h IV infusion 15 mg/kg, Group 4",95.0160 μg equiv · h/g
same,Tissue Concentration (168 h),"Epididymis, 2 h IV infusion 15 mg/kg, Group 4, LLOQ 0.036",0.129 μg equiv/g
same,Tissue Concentration (168 h),"Epididymis, PO 15 mg/kg, Group 7, LLOQ 0.034",0.042 μg equiv/g
same,AUCall,"Epididymis, PO 15 mg/kg, Group 7",31.1150 μg equiv · h/g
same,AUCall Ratio (PO/IV),Esophagus,0.38
same,Cmax Ratio (PO/IV),Esophagus,1.89
same,AUCall,"Esophagus, 2 h IV infusion 15 mg/kg, Group 4",73.1850 μg equiv · h/g
same,Tissue Concentration (168 h),"Esophagus, 2 h IV infusion 15 mg/kg, Group 4, LLOQ 0.036",0.041 μg equiv/g
same,Tissue Concentration (168 h),"Esophagus, PO 15 mg/kg, Group 7, LLOQ 0.034",BQL
same,AUCall,"Esophagus, PO 15 mg/kg, Group 7",27.9015 μg equiv · h/g
same,AUCall,"Eye (lens), 2 h IV infusion 15 mg/kg, Group 4",0.1545 μg equiv · h/g
same,Tissue Concentration (168 h),"Eye (lens), 2 h IV infusion 15 mg/kg, Group 4, LLOQ 0.036",BQL
same,Tissue Concentration (168 h),"Eye (lens), PO 15 mg/kg, Group 7, LLOQ 0.034",BQL
same,AUCall Ratio (PO/IV),Eye (uveal tract),0.32
same,Cmax Ratio (PO/IV),Eye (uveal tract),0.43
same,AUCall,"Eye (uveal tract), 2 h IV infusion 15 mg/kg, Group 4",51.5575 μg equiv · h/g
same,Tissue Concentration (168 h),"Eye (uveal tract), 2 h IV infusion 15 mg/kg, Group 4, LLOQ 0.036",BQL
same,Tissue Concentration (168 h),"Eye (uveal tract), PO 15 mg/kg, Group 7, LLOQ 0.034",BQL
same,AUCall,"Eye (uveal tract), PO 15 mg/kg, Group 7",16.2765 μg equiv · h/g
same,AUCall Ratio (PO/IV),Harderian Gland,0.25
same,Cmax Ratio (PO/IV),Harderian Gland,0.12
same,AUCall,"Harderian Gland, 2 h IV infusion 15 mg/kg, Group 4",257.6905 μg equiv · h/g
same,Tissue Concentration (168 h),"Harderian Gland, 2 h IV infusion 15 mg/kg, Group 4, LLOQ 0.036",0.403 μg equiv/g
same,Tissue Concentration (168 h),"Harderian Gland, PO 15 mg/kg, Group 7, LLOQ 0.034",0.11 μg equiv/g
same,AUCall,"Harderian Gland, PO 15 mg/kg, Group 7",63.7645 μg equiv · h/g
same,AUCall Ratio (PO/IV),Heart,0.54
same,Cmax Ratio (PO/IV),Heart,0.15
same,AUCall,"Heart, 2 h IV infusion 15 mg/kg, Group 4",58.1205 μg equiv · h/g
same,Tissue Concentration (168 h),"Heart, 2 h IV infusion 15 mg/kg, Group 4, LLOQ 0.036",0.062 μg equiv/g
same,Tissue Concentration (168 h),"Heart, PO 15 mg/kg, Group 7, LLOQ 0.034",0.045 μg equiv/g
same,AUCall,"Heart, PO 15 mg/kg, Group 7",31.1603 μg equiv · h/g
same,AUCall Ratio (PO/IV),Kidney Cortex,0.42
same,Cmax Ratio (PO/IV),Kidney Cortex,0.18
same,AUCall,"Kidney Cortex, 2 h IV infusion 15 mg/kg, Group 4",1919.6850 μg equiv · h/g
same,Tissue Concentration (168 h),"Kidney Cortex, 2 h IV infusion 15 mg/kg, Group 4, LLOQ 0.036",0.33 μg equiv/g
same,Tissue Concentration (168 h),"Kidney Cortex, PO 15 mg/kg, Group 7, LLOQ 0.034",0.342 μg equiv/g
same,AUCall,"Kidney Cortex, PO 15 mg/kg, Group 7",804.4980 μg equiv · h/g
same,AUCall Ratio (PO/IV),Kidney Medulla,0.48
same,Cmax Ratio (PO/IV),Kidney Medulla,0.34
same,AUCall,"Kidney Medulla, 2 h IV infusion 15 mg/kg, Group 4",717.8445 μg equiv · h/g
same,Tissue Concentration (168 h),"Kidney Medulla, 2 h IV infusion 15 mg/kg, Group 4, LLOQ 0.036",0.138 μg equiv/g
same,Tissue Concentration (168 h),"Kidney Medulla, PO 15 mg/kg, Group 7, LLOQ 0.034",0.201 μg equiv/g
same,AUCall,"Kidney Medulla, PO 15 mg/kg, Group 7",342.0130 μg equiv · h/g
same,AUCall Ratio (PO/IV),Large Intestine,0.45
same,Cmax Ratio (PO/IV),Large Intestine,0.61
same,AUCall,"Large Intestine, 2 h IV infusion 15 mg/kg, Group 4",310.7965 μg equiv · h/g
same,Tissue Concentration (168 h),"Large Intestine, 2 h IV infusion 15 mg/kg, Group 4, LLOQ 0.036",0.103 μg equiv/g
same,Tissue Concentration (168 h),"Large Intestine, PO 15 mg/kg, Group 7, LLOQ 0.034",0.06 μg equiv/g
same,AUCall,"Large Intestine, PO 15 mg/kg, Group 7",140.3313 μg equiv · h/g
same,AUCall Ratio (PO/IV),Liver,0.66
